US6949652B2, “Crystalline forms of 3-isopropyl-6-[4-(2,5-difluoro-phenyl)-oxazol-5-yl]-[1,2,4]triazolo-[4,3-A]pyridine” (Pfizer, Inc., priority 2002, dated 2005)

Tests used:
MAPKAP kinase-2 = assay: MAPKAP Kinase-2 assay (LPS-stimulated monocytes, immunoprecipitation, kinase activity); type: cell-based; settings: human monocytes, LPS 30 minutes, MAPKAP kinase-2 immunoprecipitate; read-out: IC50 in the MAPKAP in vitro assay
Experimental: Mononuclear cells are collected from heparinized human blood as detailed above. The washed cells are seeded into 6-well cluster plates at a density of 1×10^7 cells/well (in 2 ml of Medium). The plates are incubated at 37° C. in a 5% CO2 environment for 2 hours to allow adherence of the monocytes, after which time media supernatants containing non-adherent cells are removed by aspiration and 2 ml of fresh medium are added to each well. Plates are incubated overnight at 37° C. in a 5% CO2 environment.
Media are removed by aspiration. The attached cells are rinsed twice with fresh Medium, then 2 ml of D-MEM medium containing 10% heat inactivated FBS are added to each well. 3-isopropyl-6-[4-(2,5-difluoro-phenyl)-oxazol-5-yl]-[1,2,4]triazolo-[4,3-a]pyridine is prepared as a 30 mM stock solution in DMSO and diluted to 1250, 250, 50, 10, 2, and 0.4 μM in D-MEM containing 1% DMSO and 10% FBS. To individual wells of the monocyte cultures, 20 μl of these 3-isopropyl-6-[4-(2,5-difluoro-phenyl)-oxazol-5-yl]-[1,2,4]triazolo-[4,3-a]pyridine dilutions are added resulting in final 3-isopropyl-6-[4-(2,5-difluoro-phenyl)-oxazol-5-yl]-[1,2,4]triazolo-[4,3-a]pyridine concentrations of 12.5, 2.5, 0.5, 0.1, 0.02 and 0.004 μM. After a 10 minute preincubation period, 20 μl of a 10 μg/ml LPS solution are added to each well and the plates are incubated at 37° C. for 30 minutes. […]

[1] = tested on: TNF-alpha production by human LPS-treated monocytes; assay: Inhibition of TNF-alpha production by human LPS-treated monocytes; type: cell-based; settings: Monocyte, human mononuclear cells, 4 hours, TNF-α ELISA, read-out: IC50 in the TNFα in vitro assay
Experimental: Inhibition of TNF-alpha Production by Human LPS-treated Monocytes
Mononuclear cells are isolated from heparinized blood (1.5 ml of 1000 units/ml heparin for injection, Elkins-Sinn, Inc. added to each 50 ml sample) using Accuspin System-Histopaque-1077 tubes (Sigma A-7054). Thirty-five milliliters of whole blood are added to each tube and the tubes are centrifuged at 2100 rpm for 20 minutes in a Beckman GS-6KR centrifuge with the brake off at room temperature. The mononuclear cells which collect at the interface are removed, diluted with Macrophage serum free medium (Gibco-BRL) (Medium) to achieve a final volume of 50 ml, and collected by centrifugation for 10 minutes. The supernatant is discarded and the cell pellet is washed 2 times with 50 ml of Medium. A sample of the suspended cells is taken before the second wash for counting. Based on this count, the washed cells are diluted with Medium containing 1% FBS to a final concentration of 2.7×10^6 cells/ml and 75 μl of the cell suspension is added to each well of a 96 well plate.
3-isopropyl-6-[4-(2,5-difluoro-phenyl)-oxazol-5-yl]-[1,2,4]triazolo-[4,3-a]pyridine may be tested at final concentrations from 2 μM to 0.016 μM, but may be tested at other concentrations, depending on desire. […]
Supernatants are analyzed for TNF-α content using R&D ELISA. […]
The amount of TNF-α immunoreactivity in the samples is calculated as follows: […]

TNFα = assay: In vivo inhibition of TNFα (LPS-injected rats, serum TNFα ELISA); settings: Rattus norvegicus, ip, drug 1 hour before LPS i.p., serum TNFα 90 minutes later
Experimental: In Vivo Inhibition of TNFα Rats were weighed and dosed with vehicle (0.5% methyl cellulose, Sigma) or drug. One hour later, animals were injected i.p. with LPS (50 ug/rat, Sigma L-4130). Ninety minutes later, animals were sacrificed by asphyxiation with CO2 and bled by cardiac puncture. Blood was collected in Vaccutainer tubes and spun for 20 minutes at 3000 rpm. Serum was assayed for TNFα levels using an ELISA (R&D Systems).

[2] = Solid-state stability / dehydration of hydrate crystal forms; type: physicochemical; settings: for Dehydration temperature range: solid crystal form
Experimental: Differential Scanning Calorimetry (DSC) analysis was carried out on either TA Instruments DSC2920 or TA instrument Q1000 or a Mettler DSC 821, calibrated with indium. DSC sample was prepared by weighing 2-4 mg of material in an aluminum pan with a pinhole. The sample was heated under nitrogen, at a rate of 5° C. or 10° C. per minute from 3 to 300 C.

Structure (SMILES)	IC50 (MAPKAP kinase-2) [µM]	IC50 [1] [µM]	ED50 (TNFα) [mg/kg]	Dehydration temperature range [2] [°C]	Form conversion upon dehydration [2]
CC(C)c1nnc2ccc(-c3ocnc3-c3cc(F)ccc3F)cn12 [6-[4-(2,5-Difluoro-phenyl)-oxazol-5-yl]-3-isopropyl-[1,2,4]triazolo-[4,3-a]pyridine]	< 10	< 10	< 50		
CC(C)c1nnc2ccc(-c3ocnc3-c3cc(F)ccc3F)cn12 [Form D, 3-Isopropyl-6-[4-(2,5-difluoro-phenyl)-oxazol-5-yl]-[1,2,4]triazolo-[4,3-a]pyridine form D]				30 to 70	
CC(C)c1nnc2ccc(-c3ocnc3-c3cc(F)ccc3F)cn12 [Form E, 3-Isopropyl-6-[4-(2,5-difluoro-phenyl)-oxazol-5-yl]-[1,2,4]triazolo-[4,3-a]pyridine form E]				75 to 100	converts to Form B upon dehydration
